pIC50: −log10 of the molar value.
Legend:
human PAR-1 [1] = target: T1, human PAR-1 (Homo sapiens, UniProt P25116); assay: GTPγS binding assay with membrane fraction of human PAR-1-expressing cells; type: biochemical; details: [35S]-GTPγS binding to human PAR-1-expressing cell membrane fraction; agonist peptide SFLLRN-NH2
T1 construct: expressed in transfected cells; host or cells: CHO-K1 (transformant flag/trn/CHO-K1)
T1 sequence (P25116 22-425): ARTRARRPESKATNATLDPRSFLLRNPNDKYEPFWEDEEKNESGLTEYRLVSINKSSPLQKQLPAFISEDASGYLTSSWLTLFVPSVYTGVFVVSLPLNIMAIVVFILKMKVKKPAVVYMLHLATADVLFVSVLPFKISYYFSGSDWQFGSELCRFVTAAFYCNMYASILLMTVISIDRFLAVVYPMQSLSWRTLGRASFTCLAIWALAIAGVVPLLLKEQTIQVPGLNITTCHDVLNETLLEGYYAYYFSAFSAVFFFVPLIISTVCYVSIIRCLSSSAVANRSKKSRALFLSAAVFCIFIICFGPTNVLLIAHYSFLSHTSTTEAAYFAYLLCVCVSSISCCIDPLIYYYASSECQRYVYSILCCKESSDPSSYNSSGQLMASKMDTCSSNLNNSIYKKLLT
Procedure: The preparation method of the membrane fraction used for the GTPγS binding assay is shown below.
Human PAR-1-expressing cells were inoculated to an F500 flask at 1.8×10^5 cells/flask, and the cells were cultured for 2 days. The cells were detached with saline containing 0.02% EDTA. The cells were centrifuged (2000 rpm, 10 min), cell pellets were re-suspended in 12 ml of homogenate buffer (10 mM NaHCO3, 1 mM EDTA, protease inhibitor cocktail, pH 7.4), and homogenized by Polytron™. The residual cells were removed by centrifugation (2000 rpm, 10 min), and the supernatant was ultracentrifuged (Beckman Instruments 70 Ti type rotor, 30000 rpm, 1 hr) to give a membrane fraction of human PAR-1-expressing cells in a sediment, which was preserved at −80° C. and dissolved before use for an assay.
The measurement method of the GTPγS binding activity is shown below.
Then, the reaction mixture was filtered through a GF/C filter, washed 4 times with 300 μL of saline, and the radioactivity of the filter was measured by a TopCount scintillation counter.
The concentration (IC50 value) of the test compound necessary for inhibiting the GTPγS binding activity by 50% was calculated using PRISM3.0 (PraphPad software).

[2] = system: platelet rich plasma (PRP); assay: Platelet aggregation test (platelet rich plasma), thrombin-induced; type: cell-based; details: human PRP, thrombin at minimum concentration causing maximum aggregation; test compound concentration not given
Procedure: Platelet Aggregation Test (Platelet Rich Plasma)
Using a syringe filled in advance with 3.8% sodium citrate solution (Chitral: Yamanouchi Pharmaceutical Co., Ltd.), its 9-fold volume of venous blood was taken from healthy volunteers. After blood sampling, the blood was centrifuged at room temperature, 2700 G for […] and 15 min to give platelet rich plasma (PRP) and platelet poor plasma (PPP), respectively. PRP was applied to an automated blood cell counter (Sysmex) to adjust the platelet count to 300,000/μL, and fibrin polymerization inhibitory peptide was added thereto to a final concentration of 4 mM. The platelet aggregation rate was measured using an aggregometer (Kowa). To be specific, 200 μL of PRP was placed in a cuvette with a microstirrer, preheated at 37° C. for 2 min, and a test compound solution (20 μL) was added. The mixture was further preheated at 37° C. for 2 min with stirring (1000 rpm), thrombin (20 μL) was added, and changes in the transmittance caused by platelet aggregation were recorded over time. Thrombin was used at a minimum concentration causing maximum aggregation, and the aggregation suppressive rate (%) was calculated from the ratio of the maximum aggregation rate with addition of test compound to the maximum aggregation rate of control group. The test compound was dissolved in dimethyl sulfoxide and diluted with saline before use.

human PAR-1 [3] = target: T1, human PAR-1; assay: Evaluation of PAR-1 antagonistic action by intracellular calcium concentration variation assay (FLIPR); type: cell-based; details: human PAR-1-expressing CHO cells, agonist peptide SFLLRN-NH2 final concentration 0.3 nM, Fluo-3AM
Procedure: Evaluation of PAR-1 Antagonistic Action of Compound by Intracellular Calcium Concentration Variation Assay
Human PAR-1-expressing cells was plated at 3×10^4 cells/well on a 96 well clear bottom plate (Corning 3904 type) and cultured for 16-24 hr. The medium was removed from the wells of the plate, measurement buffer (50 μL, 115 mM NaCl, 5.4 mM KCl, 1.8 mM CaCl2, 0.8 mM MgCl2, 13.8 mM D-glucose, 0.1% BSA, 20 mM HEPES, pH 7.4) containing 2.5 μg/mL of Fluo-3AM (manufactured by Dojindo Laboratories), 0.08% Pluronic F-127 and 2.5 mM Probenecid was added to the cells and the mixture was reacted at 37° C. for 1 hr. The cells were washed twice with the measurement buffer. After addition of the measurement buffer (100 μL), a measurement buffer (50 μL) containing a test compound was added, and the mixture was stood still for 10 min. The plate was moved to a fluorometry image-plate reader (FLIPR-1, manufactured by Molecular Devices). […] The intracellular calcium concentration was measured by FLIPR.

| Compound | IC50 (human PAR-1 [1]) [µM] | aggregation suppressive rate (%) [2] [%] | pIC50 (human PAR-1 [3]) | melting point [°C] |
| --- | --- | --- | --- | --- |
| CCCc1c(C(=O)NCc2ccc(OC)cc2)nnn1-c1ccc(NC(C)=O)cc1 [Compound 2] | 2.1 | 39 |  |  |
| CCCc1c(C(=O)NCCOc2ccccc2)nnn1-c1ccc(NC(C)=O)cc1 [Compound 3] | 1.9 |  |  |  |
| CCNC(=O)c1ccc(-n2nnc(C(=O)NC3CC3)c2CSC)cc1 [Example 129, N-cyclopropyl-1-{4-[(ethylamino)carbonyl]phenyl}-5-[(methylthio)methyl]-1H-1,2,3-triazole-4-carboxamide] |  |  | 6.13 | 192 |
| CCCc1c(C(=O)NC2CC2)nnn1-c1ccc(NC(C)=O)cc1 [Compound 1, 1-[4-(acetylamino)phenyl]-N-cyclopropyl-5-propyl-1H-1,2,3-triazole-4-carboxamide, reference compound] | 1.9 | 66 |  |  |

From patent publication US7803822B2, “Triazole derivative and use thereof” (Takeda Pharmaceutical Company Limited, priority 2005, dated 2010)
